Experimental data as given in patent US20060189613A1, “Sulphonamide Compounds that Modulate Chemokine Receptor Activity (CCR4)” (priority 2003, published 2006).

Compound | melting point [°C]
COc1ccnnc1NS(=O)(=O)c1cccc(Cl)c1Cl [Example 1, 2,3-Dichloro-N-[4-methoxy-3-pyridazinyl]benzenesulphonamide] | 210 to 211
COc1cc(Cl)nnc1NS(=O)(=O)c1cccc(Cl)c1Cl [Example 2, 2,3-Dichloro-N-[6-chloro-4-methoxy-3-pyridazinyl]benzenesulphonamide] | 226 to 227
O=S(=O)(Nc1nnc(Cl)cc1OCc1cccnc1)c1cccc(Cl)c1Cl [Example 3, 2,3-Dichloro-N-[6-chloro-4-(3-pyridinylmethoxy)-3-pyridazinyl]benzenesulphonamide] | 216 to 217
COc1ncc(NS(=O)(=O)c2cccc(Cl)c2Cl)c(OC)n1 [Example 5, 2,3-Dichloro-N-[2,4-dimethoxy-5-pyrimidinyl]benzenesulphonamide] | 124 to 126
COc1ncncc1NS(=O)(=O)c1cccc(Cl)c1Cl [Example 6, 2,3-Dichloro-N-[4-methoxy-5-pyrimidinyl]benzenesulphonamide] | 204 to 211
COc1cnc(Cl)nc1NS(=O)(=O)c1cccc(Cl)c1Cl [Example 7, 2,3-Dichloro-N-[2-chloro-5-methoxy-4-pyrimidinyl]benzenesulphonamide] | 244 to 245
COc1cncnc1NS(=O)(=O)c1cccc(Cl)c1Cl [Example 8, 2,3-Dichloro-N-[5-methoxy-4-pyrimidinyl]benzenesulphonamide] | 278 to 279
COc1cnc(C(F)(F)F)nc1NS(=O)(=O)c1cccc(Cl)c1Cl [Example 10, 2,3-Dichloro-N-[5-methoxy-2-trifluoromethyl-4-pyrimidinyl]benzenesulphonamide] | 190 to 191
COc1cnc(Cl)nc1NS(=O)(=O)c1ccc(Cl)s1 [Example 11, 5-Chloro-thiophene-2-sulphonic acid, [2-chloro-5-methoxy-4-pyrimidinyl]amide] | 201 to 202
COc1cnc(C)nc1NS(=O)(=O)c1ccc(Cl)s1 [Example 12, 5-Chloro-thiophene-2-sulphonic acid, [5-methoxy-2-methyl-4-pyrimidinyl]amide] | 249 to 250
COc1cc(Cl)nnc1NS(=O)(=O)c1ccc(Cl)s1 [Example 13, 5-Chloro-N-[6-chloro-4-methoxy-3-pyridazinyl]thiophene-2-sulphonamide] | 120 to 122
